Source: publication PMC10301001, “Radiochemical and Biological Evaluation of 3p-C-NETA-ePSMA-16, a Promising PSMA-Targeting Agent for Radiotheranostics” (Pharmaceuticals, 2023)
Where “and” joins values, the source holds several entries; their conditions need not be identical. Equal values may be shown once.

Legend:
recombinant human PSMA = target: T1, recombinant human PSMA (Homo sapiens, UniProt Q04609); experiment: fluorescence-based NAALADase enzymatic assay; assay type: biochemical; settings: for IC50: rhPSMA, NAAG substrate, three assays in triplicate, read-out: IC50 (affinity to PSMA)
T1 construct: purchased R&D systems, Abingdon, UK
T1 sequence (Q04609 whole entry): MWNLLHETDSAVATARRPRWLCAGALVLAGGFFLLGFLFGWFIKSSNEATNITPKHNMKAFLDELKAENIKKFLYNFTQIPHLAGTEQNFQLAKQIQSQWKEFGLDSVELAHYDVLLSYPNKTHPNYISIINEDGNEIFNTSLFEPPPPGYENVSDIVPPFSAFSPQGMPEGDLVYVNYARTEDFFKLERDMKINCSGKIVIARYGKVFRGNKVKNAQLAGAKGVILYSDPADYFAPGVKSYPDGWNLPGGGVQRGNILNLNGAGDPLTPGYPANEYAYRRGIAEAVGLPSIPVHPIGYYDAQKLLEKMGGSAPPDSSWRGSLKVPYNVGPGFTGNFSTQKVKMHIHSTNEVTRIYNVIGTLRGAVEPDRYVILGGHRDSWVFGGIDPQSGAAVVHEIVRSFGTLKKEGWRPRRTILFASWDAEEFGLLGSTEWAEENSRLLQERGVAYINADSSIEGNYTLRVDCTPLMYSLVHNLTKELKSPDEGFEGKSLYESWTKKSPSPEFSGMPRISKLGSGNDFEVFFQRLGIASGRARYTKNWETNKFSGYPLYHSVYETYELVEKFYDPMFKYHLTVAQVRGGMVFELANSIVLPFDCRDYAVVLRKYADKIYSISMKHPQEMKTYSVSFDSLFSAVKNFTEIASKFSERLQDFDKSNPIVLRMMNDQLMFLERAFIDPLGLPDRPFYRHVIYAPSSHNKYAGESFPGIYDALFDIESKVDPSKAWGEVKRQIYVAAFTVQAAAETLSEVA
Experimental: The assay buffer (50 mM HEPES, 0.1 M NaCl, pH 7.5) was used to dilute the recombinant human PSMA (rhPSMA, R&D systems, Abingdon, UK) to 0.4 µg/mL, as well as the enzymatic substrate Ac-Asp-Glu (NAAG) (40 μM in assay buffer). 3p-C-NETA-ePSMA-16 and an internal reference, PSMA-617, were dissolved in assay buffer at concentrations ranging from 10^−5 to 10^−12 M. 6.25 µL of the compound were incubated with 6.25 µL of the substrate to which 12.5 µL of rhPSMA solution was added, and incubated for 1 h at 37 °C in 384-well black polystyrene microplates. Next, 25 µL of a working solution of the Amplex Red glutamic acid kit (ThermoFisher, Bleiswijk, The Netherlands) was added and incubated at 37 °C for 30 min to measure glutamate released. A HIDEX Sense Optical System (HIDEX, Goedereede, The Netherlands) was used to measure the fluorescence, with excitation set at 535 nm and emission at 590 nm. Assays were performed in triplicate and as three separate replicates. Data were normalized and analyzed using a one-site total binding regression algorithm from GraphPad Prism 9 (GraphPad Software, Boston, MA, USA).

[1] = Storage stability of the unlabeled compound; assay type: physicochemical
[2] = radiolabeled with 88Y, 177Lu and 205/206Bi; cited from earlier work
[3] = system: PSMA+ LS174T tumor xenografts; experiment: SPECT/CT imaging in LS174T tumor-bearing mice; assay type: in vivo, mouse; settings: 1 h p.i.
Experimental: (§1) We housed 8–10 weeks old male BALB/c nude mice (BALB/cAnN Rj-Nude; Janvier Labs, Le Genest-Saint-Isle, France) in individually ventilated cages (Blue line IVC, 2 mice per cage). Sterile standard conditions were employed with the presence of cage enrichment and unlimited access to water and animal chow (Sniff GmbH). Acclimatization was realized 1 week before the beginning of the experiments. Mice were subcutaneously inoculated in their right flank with LS174T cells (4.0 × 10^6) diluted in 100 µL of cell suspension. Tumors grew to an average volume of 217.8 ± 9.4 mm^3 in 7 days (average weight of 217 ± 14.4 mg), and mice were grouped non-blinded to afford homogenous tumor size distribution intra-groups. […] All experiments were in accordance with the guidelines of the Revised Dutch Act on Animal Experimentation (WOD).
At 1 and 24 h p.i., mice were placed under 2% isoflurane/O2 anesthesia on a heated bed and imaged in a dedicated small-animal PET/SPECT/CT scanner (VECTor5CT scanner, MILabs B.V., Utrecht, The Netherlands) equipped with a high sensitivity pinhole collimator (XXUHS-M, 3.00 mm pinhole diameter). […] The CT and registered attenuation-corrected SPECT images were analyzed using IMALYTICS Preclinical 3.0 (Gremse-IT GmbH, Aachen, Germany).

[4] = Transchelation/challenge study with excess EDTA; assay type: physicochemical; settings: 37 °C, 24 h
Experimental: Samples were analyzed by iTLC at 1, 4, and 24 h after incubation to determine the percentage (%) of intact radioligand [16].

[5] = system: PSMA+ LS174T tumor xenografts; experiment: Ex vivo biodistribution in LS174T tumor-bearing BALB/c nude mice; parameters: species or system mouse
Experimental: as §1
Mice (n = 4/group) were euthanized via cervical dislocation at 1, 4, and 24 h post-injection (p.i.). A block group (n = 4) containing a 50-fold excess of 3p-C-NETA-ePSMA-16 was also included in the study (euthanized at 4 h p.i.). Tissues were collected in tubes, weighted, and counted in the gamma counter.

LS174T PSMA+ cells = experiment: Cell uptake and internalization assay; assay type: cell-based, human
Experimental: LS174T human colon carcinoma cells transfected with human PSMA were provided by Dr. Sandra Heskamp (Radboudumc, Nijmegen, The Netherlands). RPMI-1640 media supplemented with 2 mM glutamine, 10% fetal bovine serum (FBS), and 0.3 mg/mL G418 (Geneticin, Sigma Aldrich, Burlington, MA, USA) was used to culture the cells. PC-3-Pip and PC-3-Flu cells were received from Prof. Martin G. Pomper (John Hopkins University, Baltimore, MD, USA).
LS174T cells were seeded (1.2 × 10^6 cells/well) and cultured to confluency 24 h prior to the experiments. […] Blocking experiments were also performed using a 50-fold excess of either PSMA-617 or 3p-C-NETA-ePSMA-16. The media was removed, and wells were then rinsed twice with PBS at rt. To each well, we added 2 mL of the radioactive compound, which was incubated at 37 °C for 2 h. Internalization assay: the media containing the radioactive compound was removed from each well, followed by two washes with 1 mL cold PBS. Glycine buffer (1 mL, 50 mM glycine, 100 mM NaCl, pH 2.8) was immediately added to the wells prior to incubation at rt for 10 min. The glycine wash and an additional wash were collected into counting tubes (membrane-bound fraction). NaOH (1 mL, 1 M) was added to each well for 15 min at rt. The internalized fraction (lysate) and an additional NaOH wash were collected in the same tubes. Data were normalized to the added dose per 1,000,000 cells (AD/10^6 cells) and represented as counts per minute (CPM).

[6] = LogD7.4 shake-flask method; assay type: physicochemical; settings: n-octanol/PBS pH 7.4, n = 3
Experimental: The distribution coefficient (LogD7.4) was determined by a shake-flask method in triplicate. […] The mixture was vortexed vigorously and then centrifuged at 5000× g for 15 min for phase separation. Samples of the two phases (3 × 10 μL) were taken out and measured using a PerkinElmer Wizard 2 γ-counter. LogD7.4 values were calculated using the following equation: LogD7.4 = log [(counts in octanol phase)/(counts in aqueous phase)] [34].

[7] = 4 h p.i., block (50-fold excess unlabeled)

CC(C)CC(NC(=O)C(Cc1ccccc1)NC(=O)C(CC(=O)O)NC(=O)CCC(=O)Nc1ccc(CCCC(CN2CCN(CC(=O)O)CCN(CC(=O)O)CC2)N(CC(=O)O)CC(=O)O)cc1)C(O)CC(=O)NCCCCCC(=O)NCCCCC(NC(=O)NC(CCC(=O)O)C(=O)O)C(=O)O (stereo not drawn) [3p-C-NETA-ePSMA-16, EuK(Ahx-Sta-Phe-Asp-3p-C-NETA)]
IC50 (recombinant human PSMA): 4.61 ± 1.33 nM
IC50 relative to reference PSMA-617 (fold higher IC50 / lower affinity) (recombinant human PSMA; vs PSMA-617): 5 fold
storage stability ([1]; stored as a lyophilized powder): > 1 year
storage stability ([1]; stored as an aqueous solution): > 6 months

O=C(O)CN1CCN(CC(=O)O)CCN(CC(CCCc2ccc([N+](=O)[O-])cc2)N(CC(=O)O)CC(=O)O)CC1 (centres unmarked) [3p-C-NETA]
stability in serum in vitro [2]: highly stable in serum in vitro for up to 11 days

O=C(O)CC[C@H](NC(=O)N[C@@H](CCCCNC(=O)[C@H](Cc1ccc2ccccc2c1)NC(=O)[C@H]1CC[C@H](CNC(=O)CN2CCN(CC(=O)O)CCN(CC(=O)O)CCN(CC(=O)O)CC2)CC1)C(=O)O)C(=O)O [PSMA-617, reference compound]
IC50 (recombinant human PSMA): 0.78 ± 0.3 nM

CC(C)C[C@H](NC(=O)[C@H](Cc1ccccc1)NC(=O)[C@H](CC(=O)O)NC(=O)CCC(=O)Nc1ccc(CCCC(CN2CCN(CC(=O)[O-])CCN(CC(=O)[O-])CC2)N(CC(=O)[O-])CC(=O)O)cc1)[C@@H](O)CC(=O)NCCCCCC(=O)NCCCC[C@H](NC(=O)N[C@@H](CCC(=O)O)C(=O)O)C(=O)O.[111In+3] (some centres unmarked) [[^111In]In-3p-C-NETA-ePSMA-16]
tumor signal in SPECT/CT [3]: faint signal
intact radioligand in transchelation challenge [4]: 93.2 ± 0.7% and > 90%
Blood uptake ([5]; 1 h p.i.): 0.26 ± 0.19 % ID/g
Bone uptake ([5]; 1 h p.i.): 0.20 ± 0.05 % ID/g
Heart uptake ([5]; 1 h p.i.): 0.15 ± 0.05 % ID/g
Intestines uptake ([5]; 1 h p.i.): 0.59 ± 0.13 % ID/g
Kidney uptake ([5]; 1 h p.i.): 26.70 ± 2.12 % ID/g
Liver uptake ([5]; 1 h p.i.): 0.20 ± 0.03 % ID/g
Lung uptake ([5]; 1 h p.i.): 0.45 ± 0.10 % ID/g
Muscle uptake ([5]; 1 h p.i.): 0.13 ± 0.09 % ID/g
Pancreas uptake ([5]; 1 h p.i.): 0.23 ± 0.05 % ID/g
Prostate uptake ([5]; 1 h p.i.): 1.08 ± 0.41 % ID/g
Skin uptake ([5]; 1 h p.i.): 0.46 ± 0.15 % ID/g
Spleen uptake ([5]; 1 h p.i.): 1.28 ± 0.49 % ID/g
Stomach uptake ([5]; 1 h p.i.): 0.31 ± 0.21 % ID/g
Tumor uptake ([5]; 1 h p.i.): 1.62 ± 0.55 % ID/g
Blood uptake ([5]; 4 h p.i.): 0.01 ± 0.01 % ID/g
Bone uptake ([5]; 4 h p.i.): 0.03 ± 0.00 % ID/g
Heart uptake ([5]; 4 h p.i.): 0.02 ± 0.00 % ID/g
Intestines uptake ([5]; 4 h p.i.): 0.60 ± 0.28 % ID/g
Kidney uptake ([5]; 4 h p.i.): 11.62 ± 0.62 % ID/g
Liver uptake ([5]; 4 h p.i.): 0.07 ± 0.01 % ID/g
Lung uptake ([5]; 4 h p.i.): 0.06 ± 0.01 % ID/g
Muscle uptake ([5]; 4 h p.i.): 0.04 ± 0.00 % ID/g
Pancreas uptake ([5]; 4 h p.i.): 0.03 ± 0.00 % ID/g
Prostate uptake ([5]; 4 h p.i.): 0.12 ± 0.07 % ID/g
Skin uptake ([5]; 4 h p.i.): 0.24 ± 0.15 % ID/g
Spleen uptake ([5]; 4 h p.i.): 0.12 ± 0.01 % ID/g
Stomach uptake ([5]; 4 h p.i.): 0.05 ± 0.02 % ID/g
Tumor uptake ([5]; 4 h p.i.): 0.89 ± 0.58 % ID/g
Blood uptake [5, 7]: 0.01 ± 0.00 % ID/g
Bone uptake [5, 7]: 0.03 ± 0.01 % ID/g
Heart uptake [5, 7]: 0.02 ± 0.00 % ID/g
Intestines uptake [5, 7]: 0.68 ± 0.02 % ID/g
Kidney uptake [5, 7]: 9.53 ± 1.66 % ID/g
Liver uptake [5, 7]: 0.07 ± 0.01 % ID/g
Lung uptake [5, 7]: 0.05 ± 0.01 % ID/g
Muscle uptake [5, 7]: 0.02 ± 0.01 % ID/g
Pancreas uptake [5, 7]: 0.02 ± 0.01 % ID/g
Prostate uptake [5, 7]: 0.07 ± 0.02 % ID/g
Skin uptake [5, 7]: 0.13 ± 0.02 % ID/g
Spleen uptake [5, 7]: 0.05 ± 0.01 % ID/g
Stomach uptake [5, 7]: 0.15 ± 0.10 % ID/g
Tumor uptake [5, 7]: 0.12 ± 0.04 % ID/g
Bone uptake ([5]; 24 h p.i.): 0.02 ± 0.00 % ID/g
Heart uptake ([5]; 24 h p.i.): 0.01 ± 0.00 % ID/g
Intestines uptake ([5]; 24 h p.i.): 0.04 ± 0.02 % ID/g
Kidney uptake ([5]; 24 h p.i.): 4.27 ± 0.87 % ID/g
Liver uptake ([5]; 24 h p.i.): 0.03 ± 0.00 % ID/g
Lung uptake ([5]; 24 h p.i.): 0.02 ± 0.00 % ID/g
Muscle uptake ([5]; 24 h p.i.): 0.01 ± 0.00 % ID/g
Pancreas uptake ([5]; 24 h p.i.): 0.01 ± 0.00 % ID/g
Prostate uptake ([5]; 24 h p.i.): 0.04 ± 0.01 % ID/g
Skin uptake ([5]; 24 h p.i.): 0.10 ± 0.06 % ID/g
Spleen uptake ([5]; 24 h p.i.): 0.03 ± 0.00 % ID/g
Stomach uptake ([5]; 24 h p.i.): 0.01 ± 0.00 % ID/g
Tumor uptake ([5]; 24 h p.i.): 0.12 ± 0.02 % ID/g
total cell uptake (LS174T PSMA+ cells): 1.41 ± 0.20 % ID/10^6 cells
internalized fraction (LS174T PSMA+ cells; 10^−9 M, 2 h, 37 °C): 0.50 ± 0.16 % AD/10^6 cells
membrane-bound fraction (LS174T PSMA+ cells; 10^−9 M, 2 h, 37 °C): 0.90 ± 0.05 % AD/10^6 cells
cell uptake in the blocked group (LS174T PSMA+ cells; 50-fold excess of unlabeled compound): no uptake
logD [6]: −2.95 ± 0.19
